Data: ChEMBL document CHEMBL5038569, “Targeting RECQL5 Functions, by a Small Molecule, Selectively Kills Breast Cancer in Vitro and in Vivo” (J Med Chem, 2021)
Active and inactive are the calls of the source. No cut-off for these calls is given here.

Legend:
MCF7 [1] = experiment: Cytotoxicity against human MCF7 cells expressing wild type RECQL5 assessed as cell growth inhibition measured after 72 hrs by MTT assay; assay type: functional; conditions: dose 6-50 µM
MCF7 [2] = experiment: Cytotoxicity against RECQL5 knock out human MCF7 cells assessed as cell growth inhibition measured after 72 hrs by MTT assay; assay type: functional; conditions: dose 6-50 µM
Homo sapiens = species: Homo sapiens; experiment: Inhibition of full length His-tagged human RECQL5 expressed in Escherichia coli incubated for 15 mins by fluorescence based assay

## O=C(NCc1nnc(SCc2ccccc2)o1)Nc1cc(C(F)(F)F)cc(C(F)(F)F)c1
MCF7 [1]
  Activity: Dose-Dependent Effect
MCF7 [2]
  Activity: Dose-Dependent Effect

## COc1ccc(NC(=O)N[C@@H](Cc2ccccc2)c2nnc(SCc3ccccc3)o2)cc1
MCF7 [1]
  Activity: Dose-Dependent Effect
MCF7 [2]
  Activity: Dose-Dependent Effect

## O=C(Nc1ccc([N+](=O)[O-])cc1)N[C@@H](c1ccccc1)c1nnc(SCc2ccccc2)o1
MCF7 [1]
  Activity: Dose-Dependent Effect
MCF7 [2]
  Activity: Dose-Dependent Effect

## O=C(Nc1ccc([N+](=O)[O-])cc1)N[C@@H](Cc1ccccc1)c1nnc(SCc2ccccc2)o1
MCF7 [1]
  Activity: Dose-Dependent Effect
MCF7 [2]
  Activity: Dose-Dependent Effect

## O=C(Nc1cc(C(F)(F)F)cc(C(F)(F)F)c1)N[C@@H](Cc1ccccc1)c1nnc(SCc2ccccc2)o1
MCF7 [1]
  Activity: Dose-Dependent Effect
MCF7 [2]
  Activity: Dose-Dependent Effect
Homo sapiens
  inhibition: inactive

## Cc1ccc(NC(=O)N[C@@H](c2ccccc2)c2nnc(SCc3ccccc3)o2)cc1
MCF7 [1]
  Activity: Dose-Dependent Effect
MCF7 [2]
  Activity: Dose-Dependent Effect

## COc1ccc(NC(=O)N[C@@H](c2ccccc2)c2nnc(SCc3ccccc3)o2)cc1
MCF7 [1]
  Activity: inactive
MCF7 [2]
  Activity: inactive

## Cc1ccc(NC(=O)N[C@@H](Cc2ccccc2)c2nnc(SCc3ccccc3)o2)cc1
MCF7 [1]
  Activity: Dose-Dependent Effect
MCF7 [2]
  Activity: Dose-Dependent Effect
